{
  "source": "patent US20090155270A1",
  "about": "“CASPASE INHIBITORS, […] 3 INHIBITORS, FOR THE TREATMENT OF INFLUENZA” (priority 2003, published 2009)",
  "molecules": {"B1": {"name": "procaspase-3 (protein, UniProt P42574 1-277, looked up)", "pro-form": "MENTENSVDSKSIKNLEPKIIHGSESMDSGISLDNSYKMDYPEMGLCIIINNKNFHKSTGMTSRSGTDVDAANLRETFRNLKYEVRNKNDLTREEIVELMRDVSKEDHSKRSSFVCVLLSHGEEGIIFGTNGPVDLKKITNFFRGDRCRSLTGKPKLFIIQACRGTELDCGIETDSGVDDDMACHKIPVEADFLYAYSTAPGYYSWRNSKDGSWFIQSLCAMLKQYADKLEFMHILTRVNRKVATEFESFSFDATFHAKKQIPCIVSMLTKELYFYH", "modifications": "pro-form"}},
  "key": {"[1]": {"system": "influenza virus ribonucleic protein complexes (RNP's)", "type": "cell-based, influenza A virus"}, "[2]": {"system": "reconstituted RNP complexes (PB2, PB1, PA, NP)", "type": "cell-based, influenza A virus"}, "[3]": {"system": "Raf/MEK/ERK signal pathway (ERK)", "type": "cell-based, homo sapiens"}, "[4]": {"system": "influenza A virus strain fowl plague virus (FPV)", "type": "cell-based"}, "[5]": {"target": "caspase-3 (Homo sapiens, UniProt P42574)"}, "[6]": {"system": "influenza A virus strain Bratislava/79 (fowl plague virus, FPV)", "type": "cell-based"}, "[7]": {"target": "T1, caspase-3 (Canis lupus familiaris, UniProt Q8MKI5)", "T1 construct": "endogenous in cells; host or cells: MDCK cells infected with influenza A virus FPV", "T1 sequence (Q8MKI5 29-175 limits assumed)": "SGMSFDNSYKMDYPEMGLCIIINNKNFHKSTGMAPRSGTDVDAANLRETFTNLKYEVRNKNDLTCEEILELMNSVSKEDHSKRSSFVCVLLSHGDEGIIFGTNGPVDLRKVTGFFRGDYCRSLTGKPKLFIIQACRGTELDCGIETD", "T1 sequence (Q8MKI5 176-277 limits assumed)": "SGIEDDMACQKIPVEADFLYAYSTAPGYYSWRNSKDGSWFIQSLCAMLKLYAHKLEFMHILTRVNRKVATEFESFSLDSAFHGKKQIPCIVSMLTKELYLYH", "type": "cell-based"}, "[8]": {"system": "early or late viral proteins (NS1, NP, M1)", "type": "cell-based, influenza A virus"}, "[9]": {"system": "influenza A virus nucleoprotein (NP)", "type": "cell-based"}, "[10]": {"system": "influenza A virus strain fowl plague virus (FPV)", "type": "cell-based", "remark": "listed apart in the source"}, "[11]": {"system": "influenza A virus strain fowl plague virus (FPV)", "type": "cell-based", "remark": "listed apart in the source"}},
  "note": "Residues, ends and D or L forms follow the SMILES beside them. *: point of attachment. Cbz = O=C(OCc1ccccc1)*; CH2F = FC*",
  "data": [
    {"molecule": "N#CC(=C(/N)Sc1ccccc1N)/C(C#N)=C(\\N)Sc1ccccc1N", "note": "[U0126]", "values": [
      {"measurement": "migration of the RNP's out of the cell nucleus", "setting": "[1]", "value": "efficiently be inhibited"},
      {"measurement": "prevention of staurosporine-induced bleeding of GFP and RNP complexes out of the cell nucleus", "setting": "[2]", "value": "not"},
      {"measurement": "virus-induced activity of ERK", "setting": "[3]", "value": "efficiently inhibited"},
      {"measurement": "effect on the virus multiplication (titers of descendant viruses)", "setting": "[4]", "value": "again reduced"},
      {"measurement": "cleavage of the caspase substrate PARP", "setting": "[5]", "value": "did not lead to a modified cleavage of PARP"}
    ]},
    {"molecule": "COC(=O)CC[C@H](NC(=O)[C@H](CC(=O)OC)NC(=O)OCc1ccccc1)C(=O)N[C@H](C(=O)N[C@@H](CC(=O)OC)C(=O)CF)C(C)C", "note": "[Z-DEVD-FMK]", "values": [
      {"measurement": "effect on virus multiplication when present in the first two hours after infection and removed thereafter", "setting": "[6]", "value": "no significant effects"},
      {"measurement": "inhibition of virus multiplication when added 4 hours after infection", "setting": "[6]", "value": "continued to effectively inhibit virus multiplication"},
      {"measurement": "reduction in the influenza virus titers", "setting": "[6]", "value": "approx. 60%"},
      {"measurement": "caspase inhibition, measured by the cleavage of the caspase substrate PARP, versus virus titer inhibition", "setting": "[7]", "value": "precisely correlated"},
      {"measurement": "effect on virus protein expression", "setting": "[8]", "value": "no significant effect"},
      {"measurement": "migration of the RNP's out of the cell nucleus", "setting": "[1]", "value": "efficiently be inhibited"},
      {"measurement": "prevention of staurosporine-induced bleeding of NP out of the cell nucleus", "setting": "[9]", "value": "can be prevented"},
      {"measurement": "prevention of staurosporine-induced bleeding of GFP and RNP complexes out of the cell nucleus", "setting": "[2]", "value": "can be prevented"},
      {"measurement": "virus-induced activity of ERK", "setting": "[3]", "value": "substantially identical"},
      {"measurement": "effect on the virus multiplication (titers of descendant viruses)", "setting": "[4]", "value": "did not have any effect"}
    ]},
    {"molecule": "CC(NC(=O)[C@H](Cc1ccccc1)NC(=O)OCc1ccccc1)C(=O)CF", "note": "(some centres unmarked) [Z-FA-FMK]", "values": [
      {"measurement": "effect on virus multiplication", "setting": "[6]", "value": "did not show any effect"},
      {"measurement": "migration of the RNP's out of the cell nucleus", "setting": "[1]", "value": "not"}
    ]},
    {"molecule": "COC(=O)C[C@H](NC(=O)[C@H](C)NC(=O)[C@@H](NC(=O)OCc1ccccc1)C(C)C)C(=O)CF", "note": "[Z-VAD-FMK] (Cbz-Val-Ala-Asp(OMe)-CH2F)", "values": [
      {"measurement": "inhibition of the virus multiplication", "setting": "[6]", "value": "same efficiency"}
    ]},
    {"molecule": "CCC(=C/[C@H](C)C/C=C/C(C)=C/[C@@H](C)C(=O)[C@@H](C)[C@H](O)[C@@H](C)C/C(C)=C/C(=O)O)/C=C/[C@@H]1OC(=O)C=C[C@@H]1C", "note": "[leptomycin B]", "values": [
      {"measurement": "prevention of staurosporine-induced bleeding of NP out of the cell nucleus", "setting": "[9]", "value": "not"}
    ]},
    {"molecule": "CN[C@@H]1C[C@H]2O[C@@](C)([C@@H]1OC)n1c3ccccc3c3c4c(c5c6ccccc6n2c5c31)C(=O)NC4", "note": "[staurosporine]", "values": [
      {"measurement": "localization of the nucleoprotein after apoptosis induction", "setting": "[9]", "value": "distributed over the complete cell"},
      {"measurement": "localization of GFP and RNP complexes after apoptosis induction", "setting": "[2]", "value": "distributed over the complete cell"}
    ]},
    {"molecule": "B1", "values": [
      {"measurement": "virus multiplication in transfected cells", "setting": "[10]", "value": "increased virus multiplication"},
      {"measurement": "increase in the titers of descendant viruses", "setting": "[11]", "value": 30, "unit": "fold"}
    ]}
  ]
}
